Our source for the EC50 values is article PMC10968976, “Targeting CDK9 in Cancer: An Integrated Approach of Combining In Silico Screening with Experimental Validation for Novel Degraders” (Current Issues in Molecular Biology, 2024).

Where two headings read alike, the source gives them in different places.

One experiment has as its system MIA-PaCa-2 cells. Put plainly: Cell viability (cell-titer-glo), MIA-PaCa-2. The format is cell-based. The following applies: MIA-PaCa 2 cell line, 48 to 72 h, read-out: Estimated EC50. Here is the method: (§1) The cell lines used in this study were purchased from ATCC (https://www.atcc.org, accessed on 18 December 2023) and maintained under standard conditions at 37 °C with a 5% CO2 atmosphere. NCI-H-358 cells were cultivated in 1X RPMI 1640 medium, while MIA-PaCa2 cells were cultured using 1X DMEM. Both culture media were supplemented with 10% fetal bovine serum and 1X Penicillin/Streptomycin (Gibco). For culturing the Melma-3M cells, IMDM media fortified with 20% fetal bovine serum and 1X Penicillin/Streptomycin was used. […]
(§2) Briefly, for cell viability experiments, after splitting, cells from each respective cell line were plated onto 96-well plates (MSP, Cat # CT-229185) at a density of about 1 × 10^4 cells/mL and 200 µL per well using the appropriate cell culture media after about 24 h at 37 °C, the cell media in each 96-well plate were replaced with media containing the various test compounds at varying concentrations. […] Each plate was gently mixed for ca. 10 min at room temperature and then transferred to a plate reader (Bio-Tek, Synergy HTX, Winooski, VT, USA, multimode reader) for chemiluminescence measurement as a proportional indicator of cell viability.
(§3) TB003 and TB008 have also been evaluated for cell growth inhibition and killing using two cell lines, NCI-H358, a non-small cell lung carcinoma-derived cell line, and MIA-PaCa-2, a pancreatic carcinoma-derived cell line. […]

For a further experiment, the system named is NCI-H358 cells. Put plainly: Cell viability (cell-titer-glo), NCI-H358. The following applies: Homo sapiens, NIH H-358 cell line, 48 to 72 h, read-out: Estimated EC50. Format: cell-based. Here is the method: as §1, §2, §3

Take `CC(=O)O[C@H]1C(=O)[C@@]2(C)[C@H]([C@H](OC(=O)c3ccccc3)[C@]3(O)C[C@H](OC(=O)[C@H](O)[C@@H](NC(=O)c4ccccc4)c4ccccc4)C(C)=C1C3(C)C)[C@]1(OC(C)=O)CO[C@@H]1C[C@@H]2O` [Paclitaxel, paclitaxel]: the EC50 in the experiment on MIA-PaCa-2 cells (Homo sapiens) is 10 µM; in the experiment with NCI-H358 cells, 75 µM.
`O=C1[O][Pt]2([NH][C@@H]3CCCC[C@H]3[NH]2)[O]C1=O` [Oxaliplatin, oxaliplatin]: the EC50 in the experiment with MIA-PaCa-2 cells was 100 µM.

As a reminder, the EC50 is the concentration that produces a half-maximal response.
